Results as given in US20020143143A1, “Peptides designed for the diagnosis and treatment of rheumatoid arthritis” (priority 1999, published 2002).
Where two headings read alike, the source gives them in different places.

What was measured:
[1] = system: RA specific autoantibodies in human sera; assay: LIA comparison of synthetic peptides with existing peptides and citrullinated recombinant filaggrin (Example 3); format: binding; conditions: 212 established RA sera, 153 disease control sera (table title: 225 and 154); ROC analysis
Procedure: Streptavidin-complexed peptides were applied directly on a nylon membrane with a plastic backing. Blocked strips were incubated during 1 hour with human sera diluted 1/100 in 1 ml PBS, 0.5% caseine, 0.1% Triton X705, 10 mM MgCl2.6H2O. After washing with PBS, 0.05% Tween20, goat anti-human IgG-AP conjugate (Promega) diluted in PBS, 0.1% caseine, 0.2% Triton X705 was added for 30 min. Strips were developed in 100 mM NaCl, 100 mM Tris-HCl, pH 9.8, 50 mM MgCl2.6H2O substrate buffer containing the chromogenic substrate NBT/BCIP. Reaction was stopped after 30 min by addition of 0.2 N H2SO4. Air-dried strips were scanned using a HP Scanjet 5P scanner and an in-house LIA interpretation software program.
Recombinant human filaggrin was expressed in E. coli and purified by Ni-IMAC chromatography. Citrullination was performed as described by Senshu et al. (1995) using peptidylarginine deiminase (Sigma) at a 1/120 enzyme/substrate ratio during 4h at 37° C.
Three synthetic peptides (IGP1475, 1477 and 1564) described by Girbal-Neuhauser (1999) (patent application WO 99/35167) and the cyclic peptide IGP1546 described in the patent application WO 98/22503, were synthesised and used for comparison with IGP1611, 1646, 1650 and 1651 on LIA.
On the same strips, also citrullinated recombinant E. coli filaggrin was applied. […]

[2] = system: anti-filaggrin antibodies in human sera; assay: Western blotting using natural filaggrin; format: binding
Procedure: Natural filaggrin was purified from human skin obtained freshly after abdominoplasty according to the protocol of Simon et al. (1993). The amount of protein was determined by the Bradford protein assay as modified by Peterson (1983) using BSA standard curves. The crude filaggrin preparation was subjected to 15% Laemmli SDS-PAGE using the Bio-Rad mini-gel apparatus. Two-μg protein/cm was loaded in a large slot and electrophoresed under standard conditions. The gel was subsequently electroblotted onto nitrocellulose membrane in 10% methanol, 10 mM CAPS, pH 11.0 during 40 min. The blot was blocked in PBS, 0.05% Tween20, 1% gelatin and cut into 3 mm strips, which were probed with human sera overnight at a 1/100 dilution in PBS, 0.05% Tween20, 0.1% gelatin. As a secondary antibody the anti-human IgG-AP conjugate (Sigma, St Louis, […]) was added at a 1/1000 dilution; visualisation occurred with the NBT/BCIP chromogenic substrate.

RA sera [3] = conditions: 159/279 RA sera; specificity level of 98.6% using 213 disease control sera; cited from earlier work
RA sera [4] = conditions: cited from earlier work
[5] = system: anti-filaggrin autoantibodies; conditions: cited from earlier work

## Citr. rec. filaggrin: Recombinant human filaggrin expressed in E. coli, citrullinated using peptidylarginine deiminase
[1]
  Sensitivity at 98% spec. level: 32%

## natural filaggrin: Natural filaggrin purified from human skin (crude filaggrin preparation); in b6 isolated from human epidermis
[2]; 47 sera from patients with early disease (less than 12 months of symptoms)
  sensitivity of Western blot: 25%
[2]; 153 disease controls
  specificity of Western blot system: 94%
[2]; 212 longstanding RA sera
  sensitivity of Western blot: 41%
RA sera [3]
  RA sera showing positive reaction on Western blot: 37%
RA sera [4]; 55 RA sera
  RA sera detected in ELISA: 47%
RA sera [4]; healthy controls
  healthy controls showing positivity in ELISA: 1%

## recombinant human filaggrin: recombinant human filaggrin, in vitro deiminated by PAD or non-citrullinated (Girbal-Neuhauser et al., 1999)
[5]; after in vitro deimination by peptidylarginine deiminase (PAD)
  reactivity with human RA sera in ELISA: reactive
[5]; non-citrullinated protein
  reactivity with human RA sera in ELISA: unreactive
